# Test results: patent US8048898B2, “Inhibitor of binding of S1P1” (Taisho Pharmaceutical Co., Ltd, priority 2007, dated 2011)
# Target: T1, human Edg-1(S1P1) (Homo sapiens, UniProt P21453)
# T1 construct: expressed in transfected cells; host or cells: HEK-293
# Assay: S1P1 Binding Test ([33P]-S1P, membrane fraction of HEK-293 cell line carrying the human Edg-1(S1P1) gene)
# Details: [33P]-S1P 0.1 nM; for IC50: membrane binding test at various concentrations, read-out: IC50 value, Edg-1(S1P1) binding inhibition; for inhibition at 10 µM: compound at 10 μM, 30° C., 1 hour, read-out: inhibition rate of Edg-1(S1P1) binding
# Protocol: The membrane fraction of a HEK-293 cell line carrying the human Edg-1(S1P1) gene was used to study the compounds of the present invention for their inhibitory effect on Edg-1(S1P1) binding, as described in Science. […] To obtain the membrane fraction, treatment with solubilizing buffer (1 mM Tris/HCl, pH 7.2) for 10 minutes on ice was performed, followed by centrifugation at 1000×g for 5 minutes to remove an insoluble fraction and then at 40000×g for 30 minutes at 4° C. The resulting membrane fraction was dissolved in binding buffer (20 mM Tris-HCl, pH 7.4, 100 mM NaCl, 15 mM NaF, 2 mM deoxypyridoxine, 4 mg/mL fatty acid-free BSA), followed by addition of binding buffer containing [^33P]-S1P (ARC, final concentration: 0.1 nM) and DMSO solution of a test compound (final concentration of the compound: 10^−5 M, final concentration of DMSO: 0.1%). After stirring, the reaction solution was incubated at 30° C. for 1 hour. The membrane fraction was collected onto a unifilter-96 GF/C filter (Perkin Elmer) using a harvester and washed four times with binding buffer, followed by drying the filter. After addition of 25 μL Microscint 0 (Perkin Elmer), radioactivity was measured with a Top Count NXT (Packard) to calculate amount (A), i.e., the amount of [^33P]-S1P binding to the membrane fraction in the presence of the compound.
# The same procedure was performed in the absence of any test compound to calculate amount (B), i.e., the amount of [^33P]-S1P binding. Moreover, the same procedure was also performed with HEK-293 cells carrying no Edg-1(S1P1) gene in the absence of any test compound to calculate amount (C), i.e., the amount of background [^33P]-S1P binding.
# The inhibition rate of Edg-1(S1P1) binding was calculated for each compound by the following equation. Inhibition rate (%)=[1−(A−C)/(B−C)]×100
# Moreover, the activity of each test compound was calculated as a value (IC50 value) showing 50% of the radioactivity obtained in the absence of any test compound. Namely, the above membrane system binding test was performed in the presence of a test compound at various concentrations to calculate an IC50 value according to the dose-dependent inhibition curve analyzed with data analysis software, Origin (Lightstone Corp., Japan).
# T1 sequence (P21453 whole entry): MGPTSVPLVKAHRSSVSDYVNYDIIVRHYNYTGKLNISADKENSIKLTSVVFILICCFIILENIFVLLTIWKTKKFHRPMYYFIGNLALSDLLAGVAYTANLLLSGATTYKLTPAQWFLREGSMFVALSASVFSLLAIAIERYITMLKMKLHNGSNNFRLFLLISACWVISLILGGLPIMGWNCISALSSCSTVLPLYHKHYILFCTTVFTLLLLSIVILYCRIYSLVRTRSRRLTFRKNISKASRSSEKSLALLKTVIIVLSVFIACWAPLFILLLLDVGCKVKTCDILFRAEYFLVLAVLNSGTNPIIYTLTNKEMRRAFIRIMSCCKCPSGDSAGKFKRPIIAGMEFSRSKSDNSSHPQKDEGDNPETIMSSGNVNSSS
Compound,IC50 [nM],inhibition at 10 µM [%]
5-Chloro-naphthalene-2-sulfonic acid (1-{3-ethyl-4-[3-(4-methyl-piperazin-1-yl)-phenoxy]-pyridin-2-yl}-ethyl)-amide [Compound 4],121,–
"CCc1c(C(C)NS(=O)(=O)c2ccc3c(Cl)cccc3c2)ccnc1Sc1cccc(N2CCN(C)CC2)c1 (single isomer, unassigned) [Compound 61]",33,≥ 3
CCc1c(Oc2ccc(C)cc2)nc(C)nc1C(C)NS(=O)(=O)c1ccc(Cl)c(Cl)c1 (stereo not drawn) [Compound 1],–,≥ 3
CCc1c(Oc2ccc(C)cc2)nc(C)nc1C(C)NS(=O)(=O)c1ccc2c(Cl)cccc2c1 (stereo not drawn) [Compound 2],–,≥ 3
"CCc1c(C(C)NS(=O)(=O)c2ccc(Cl)c(Cl)c2)ccnc1Oc1cccc(N2CCN(C)CC2)c1 (stereo not drawn) [Compound 3, 3,4-Dichloro-N-(1-{3-ethyl-2-[3-(4-methyl-piperazin-1-yl)-phenoxy]-pyridin-4-yl}-ethyl)-benzenesulfonamide]",107,≥ 3
CCc1c(Oc2cccc(N3CCN(C)CC3)c2)ccnc1C(C)NS(=O)(=O)c1ccc(Cl)c(Cl)c1 (stereo not drawn) [Compound 5],–,≥ 3
Cc1c(C(C)NS(=O)(=O)c2ccc(Cl)c(Cl)c2)ccnc1Oc1cccc(N2CCN(C)CC2)c1 (stereo not drawn) [Compound 6],–,≥ 3
Cc1c(C(C)NS(=O)(=O)c2ccc3c(Cl)cccc3c2)ccnc1Oc1cccc(N2CCN(C)CC2)c1 (stereo not drawn) [Compound 7],≤ 200,≥ 3
CC(NS(=O)(=O)c1ccc(Cl)c(Cl)c1)c1ccnc(Oc2cccc(N3CCN(C)CC3)c2)c1 (stereo not drawn) [Compound 8],–,≥ 3
CC(NS(=O)(=O)c1ccc2c(Cl)cccc2c1)c1ccnc(Oc2cccc(N3CCN(C)CC3)c2)c1 (stereo not drawn) [Compound 9],–,≥ 3
CCCc1c(C(C)NS(=O)(=O)c2ccc(Cl)c(Cl)c2)ccnc1Oc1cccc(N2CCN(C)CC2)c1 (stereo not drawn) [Compound 10],–,≥ 3
CCCc1c(C(C)NS(=O)(=O)c2ccc3c(Cl)cccc3c2)ccnc1Oc1cccc(N2CCN(C)CC2)c1 (stereo not drawn) [Compound 11],≤ 200,≥ 3
CCc1c(C(CC)NS(=O)(=O)c2ccc(Cl)c(Cl)c2)ccnc1Oc1cccc(N2CCN(C)CC2)c1 (stereo not drawn) [Compound 12],–,≥ 3
CCc1c(C(CC)NS(=O)(=O)c2ccc3c(Cl)cccc3c2)ccnc1Oc1cccc(N2CCN(C)CC2)c1 (stereo not drawn) [Compound 13],47,≥ 3
CCc1c(CNS(=O)(=O)c2ccc(Cl)c(Cl)c2)ccnc1Oc1cccc(N2CCN(C)CC2)c1 [Compound 14],–,≥ 3
CCc1c(CNS(=O)(=O)c2ccc3c(Cl)cccc3c2)ccnc1Oc1cccc(N2CCN(C)CC2)c1 [Compound 15],–,≥ 3
CCc1c(C(C)NS(=O)(=O)c2ccc(Cl)c(Cl)c2)ccnc1Oc1ccc(C)cc1 (stereo not drawn) [Compound 16],–,≥ 3
CCc1c(C(C)NS(=O)(=O)c2ccc(Cl)c(Cl)c2)ccnc1Oc1ccc(OC)cc1 (stereo not drawn) [Compound 17],–,≥ 3
CCc1c(C(C)NS(=O)(=O)c2ccc(Cl)c(Cl)c2)ccnc1Oc1ccc(Cl)cc1 (stereo not drawn) [Compound 18],–,≥ 3
CCc1c(C(C)NS(=O)(=O)c2ccc(Cl)c(Cl)c2)ccnc1Oc1cccc(N2CCOCC2)c1 (stereo not drawn) [Compound 19],66,≥ 3
CCc1c(C(C)NS(=O)(=O)c2ccc(Cl)c(Cl)c2)ccnc1Oc1ccc2ccncc2c1 (stereo not drawn) [Compound 20],–,≥ 3
CCc1c(C(C)NS(=O)(=O)c2ccc(Cl)c(Cl)c2)ccnc1Oc1ccc2ccccc2c1 (stereo not drawn) [Compound 21],–,≥ 3
CCc1c(C(C)NS(=O)(=O)c2ccc(Cl)c(Cl)c2)ccnc1Oc1cccc(N(C)C)c1 (stereo not drawn) [Compound 22],≤ 200,≥ 3
CCc1c(C(C)NS(=O)(=O)c2ccc(Cl)c(Cl)c2)ccnc1OC (stereo not drawn) [Compound 23],–,≥ 3
CCc1c(C(C)NS(=O)(=O)c2ccc(Cl)c(Cl)c2)ccnc1OCC(F)(F)F (stereo not drawn) [Compound 24],–,≥ 3
CCc1c(C(C)NS(=O)(=O)c2ccc(Cl)c(Cl)c2)ccnc1OCc1ccccc1 (stereo not drawn) [Compound 25],–,≥ 3

Compound,IC50 [nM],inhibition at 10 µM [%]
"CCc1c(C(C)NS(=O)(=O)c2ccc(Cl)c(Cl)c2)ccnc1OC(C)C (stereo not drawn) [Compound 26, 3,4-Dichloro-N-[1-(2-isopropoxy-3-ethyl-pyridin-4-yl)-ethyl]-benzenesulfonamide]",–,≥ 3
"CCc1c(C(C)NS(=O)(=O)c2ccc3c(Cl)cccc3c2)ccnc1Oc1cccc(N2CCOCC2)c1 (stereo not drawn) [Compound 27, 5-Chloronaphthalene-2-sulfonic acid {1-[3-ethyl-2-(3-morpholin-4-yl-phenoxy)-pyridin-4-yl]-ethyl}-amide]",51,≥ 3
"CCc1c([C@@H](C)NS(=O)(=O)c2ccc(Cl)c(Cl)c2)ccnc1Oc1cccc(N2CCN(C)CC2)c1 [Compound 28, (R)-3,4-Dichloro-N-(1-{3-ethyl-2-[3-(4-methyl-piperazin-1-yl)-phenoxy]-pyridin-4-yl}-ethyl)-benzenesulfonamide]",49,≥ 3
"CCc1c([C@H](C)NS(=O)(=O)c2ccc(Cl)c(Cl)c2)ccnc1Oc1cccc(N2CCN(C)CC2)c1 [Compound 29, (S)-3,4-Dichloro-N-(1-{3-ethyl-2-[3-(4-methyl-piperazin-1-yl)-phenoxy]-pyridin-4-yl}-ethyl)-benzenesulfonamide]",–,≥ 3
CCc1c(C(C)NS(=O)(=O)c2ccc(Cl)c(Cl)c2)ccnc1OC1CCC1 (stereo not drawn) [Compound 30],–,≥ 3
CCc1c(C(C)NS(=O)(=O)c2ccc3c(Cl)cccc3c2)ccnc1Oc1cccc(N2CCN(C)CC2)c1 (stereo not drawn) [Compound 31],35,≥ 3
CCc1c(C(C)NS(=O)(=O)c2ccccc2)ccnc1Oc1cccc(N2CCOCC2)c1 (stereo not drawn) [Compound 32],–,≥ 3
CCc1c(C(C)NS(=O)(=O)c2ccccc2C)ccnc1Oc1cccc(N2CCOCC2)c1 (stereo not drawn) [Compound 33],–,≥ 3
CCc1c(C(C)NS(=O)(=O)c2cccc(C)c2)ccnc1Oc1cccc(N2CCOCC2)c1 (stereo not drawn) [Compound 34],–,≥ 3
CCc1ccc(S(=O)(=O)NC(C)c2ccnc(Oc3cccc(N4CCOCC4)c3)c2CC)cc1 (stereo not drawn) [Compound 35],–,≥ 3
CCc1c(C(C)NS(=O)(=O)c2ccc(OC)cc2)ccnc1Oc1cccc(N2CCOCC2)c1 (stereo not drawn) [Compound 36],–,≥ 3
CCc1c(C(C)NS(=O)(=O)c2ccc(C(F)(F)F)cc2)ccnc1Oc1cccc(N2CCOCC2)c1 (stereo not drawn) [Compound 37],–,≥ 3
CCc1c(C(C)NS(=O)(=O)c2ccc(OC(F)(F)F)cc2)ccnc1Oc1cccc(N2CCOCC2)c1 (stereo not drawn) [Compound 38],–,≥ 3
CCc1c(C(C)NS(=O)(=O)c2ccc([N+](=O)[O-])cc2)ccnc1Oc1cccc(N2CCOCC2)c1 (stereo not drawn) [Compound 39],–,≥ 3
CCc1c(C(C)NS(=O)(=O)c2ccc(C#N)cc2)ccnc1Oc1cccc(N2CCOCC2)c1 (stereo not drawn) [Compound 40],–,≥ 3
CCc1c(C(C)NS(=O)(=O)c2ccc(Cl)cc2)ccnc1Oc1cccc(N2CCOCC2)c1 (stereo not drawn) [Compound 41],–,≥ 3
CCc1c(C(C)NS(=O)(=O)c2cccc(Br)c2)ccnc1Oc1cccc(N2CCOCC2)c1 (stereo not drawn) [Compound 42],–,≥ 3
CCc1c(C(C)NS(=O)(=O)c2ccccc2F)ccnc1Oc1cccc(N2CCOCC2)c1 (stereo not drawn) [Compound 43],–,≥ 3
CCc1c(C(C)NS(=O)(=O)c2ccc(C(C)=O)cc2)ccnc1Oc1cccc(N2CCOCC2)c1 (stereo not drawn) [Compound 44],–,≥ 3
CCc1c(C(C)NS(=O)(=O)c2ccc(F)c(Cl)c2)ccnc1Oc1cccc(N2CCOCC2)c1 (stereo not drawn) [Compound 45],–,≥ 3
CCc1c(C(C)NS(=O)(=O)c2ccc(C)c(Cl)c2)ccnc1Oc1cccc(N2CCOCC2)c1 (stereo not drawn) [Compound 46],–,≥ 3
CCc1c(C(C)NS(=O)(=O)c2ccc(Br)s2)ccnc1Oc1cccc(N2CCOCC2)c1 (stereo not drawn) [Compound 47],–,≥ 3
CCc1c(C(C)NS(=O)(=O)c2ccc(Cl)c(Cl)c2Cl)ccnc1Oc1cccc(N2CCOCC2)c1 (stereo not drawn) [Compound 48],63,≥ 3
CCc1c(C(C)NS(=O)(=O)c2cccnc2)ccnc1Oc1cccc(N2CCOCC2)c1 (stereo not drawn) [Compound 49],–,≥ 3
CCc1c(C(C)NS(=O)(=O)c2ccc3ncccc3c2)ccnc1Oc1cccc(N2CCOCC2)c1 (stereo not drawn) [Compound 50],–,≥ 3
CCc1c(C(C)NS(=O)(=O)c2cc3ccccc3s2)ccnc1Oc1cccc(N2CCOCC2)c1 (stereo not drawn) [Compound 51],–,≥ 3
